Legend:
[1] = tested on: wild-type cotyledons in Arabidopsis
Procedure: A salt tolerance screen is performed to identify and isolate gene(s) that confer salt (NaCl) tolerance in Arabidopsis.
A primary screen is conducted with T1 plants, using a germination assay. T1 seed is plated evenly in media supplemented with 250 mM NaCl. For negative and positive controls, wild type (Col-O) seed is plated in plates with and without, respectively, the supplemental NaCl. Plates are incubated for two days at 4° C., then transferred to a growth room and incubated an additional 7 to 14 days.
Salt tolerant germination is classified in five stages: 1) imbibation, emergence of radicle; 2) expansion and greening of cotyledons; 3) elongation of the hypocotyl; 4) elongation of the root and formation of root hairs; 5) development of true leaves.

[2] = tested on: wild type (Col-0) Arabidopsis; assay: Copper tolerance germination assay; format: in vivo
Procedure: A screen for copper tolerance was developed in order to identify and isolate gene(s) whose altered expression confers copper tolerance and allows normal plant growth and development in the presence of an inhibitory level of copper. It has been experimentally determined that the lowest completely inhibitory concentration (LCI) of copper is 160 μM for hypocotyl and cotyledon expansion and the development of true leaves in wild type (Col-0) Arabidopsis.
For the primary screen, pooled T2 lines are plated on media supplemented with 160 μM CuSO4. Controls include wild type (Col-0 cand Shadara) plants germinating on plates with no copper and copper at the Col-0 LCI for germination. Plates are incubated 3 days at 4° C., then transferred to the growth room and incubated an additional 10 days.
Copper sensitivity is evaluated with germination assays, which are performed as described above for salt resistance screens.

Row | Structure (SMILES) | concentration that completely abolishes expansion and green pigmentation of cotyledons [1] | concentration at which negative gravitropism of the hypocotyl is completely inhibited [2] [µM] | concentration at which root elongation is inhibited [2] [µM] | lowest completely inhibitory concentration (LCI) ([2]; hypocotyl and cotyledon expansion and development of true leaves) [µM]
1 | [Cl-].[Na+] [NaCl] | greater than 250 mM | – | – | –
2 | O=S(=O)([O-])[O-].[Cu+2] [copper, CuSO4] | – | 50 | 100 | 160

From patent US7879611B2, “System for functional gene discovery in plants” (Agrigenetics Inc, priority 2000, dated 2011)
